The record followed here is US20260053932A1, “COMPOUNDS AND METHODS FOR THE TARGETED DEGRADATION OF ANDROGEN RECEPTOR AND ASSOCIATED METHODS OF USE” (Arvinas Operations, Inc., priority 2020, published 2026).

One assay concerns androgen receptor (AR) in LNCaP and/or VCaP cells. Kind of assay: Androgen Receptor ELISA assay (AR degradation). The format is cell-based. Particulars: LNCaP and/or VCaP cells; 5 hours incubation; media with R1881; read-out: DC50 Code* (degradation of AR ELISA). In a few lines:
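VCaP cells grown ≥3 days, then treated 5 h with compound in media containing 1 nM R1881 (10× stock). Cells lysed and AR quantified by sandwich ELISA (mouse AR detection Ab, HRP anti-mouse, TMB). DC50 and Dmax derived from AR degradation.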
For `CC(=O)N(CC1CCN(c2cnc(C(=O)N[C@H]3CC[C@H](Oc4cc(C)c(C#N)c(C)c4)CC3)cn2)CC1)[C@H]1C[C@H](Oc2ccc3c(c2)C(=O)N(C2CCC(=O)NC2=O)C3=O)C1` (some centres unmarked) [Compound 50, N-((1r,4r)-4-(4-cyano-3,5-dimethylphenoxy)cyclohexyl)-5-(4-((N-((1r,3r)-3-((2-(2,6-dioxopiperidin-3-yl)-1,3-dioxoisoindolin-5-yl)oxy)cyclobutyl)acetamido)methyl)piperidin-1-yl)pyrazine-2-carboxamide], the DC50 is less than 1 nM.

As to `CCN(CC1CCN(c2cnc(C(=O)N[C@H]3CC[C@H](Oc4ccc(C#N)c(Cl)c4)CC3)cn2)CC1)[C@H]1C[C@H](Oc2ccc3c(c2)C(=O)N(C2CCC(=O)NC2=O)C3=O)C1` (some centres unmarked) [Compound 28, N-((1r,4r)-4-(3-chloro-4-cyanophenoxy)cyclohexyl)-5-(4-((((1r,3r)-3-((2-(2,6-dioxopiperidin-3-yl)-1,3-dioxoisoindolin-5-yl)oxy)cyclobutyl)(ethyl)amino)methyl)piperidin-1-yl)pyrazine-2-carboxamide], the DC50 is less than 1 nM.

`N#Cc1ccc(O[C@H]2CC[C@H](NC(=O)c3ccc(N4CCC(CN5CCN(c6ccc7c(c6F)C(=O)N(C6CCC(=O)NC6=O)C7=O)CC5)CC4)nn3)CC2)cc1Cl` (some centres unmarked) [Compound 49]: the DC50 was less than 1 nM.

With `CCN(CC1CCN(c2cnc(C(=O)N[C@H]3CC[C@H](Oc4ccc(C#N)c(OC)c4)CC3)cn2)CC1)[C@H]1C[C@H](Oc2ccc3c(c2)C(=O)N(C2CCC(=O)NC2=O)C3=O)C1` (some centres unmarked) [Compound 33, N-((1r,4r)-4-(4-cyano-3-methoxyphenoxy)cyclohexyl)-5-(4-((((1r,3r)-3-((2-(2,6-dioxopiperidin-3-yl)-1,3-dioxoisoindolin-5-yl)oxy)cyclobutyl)(ethyl)amino)methyl)piperidin-1-yl)pyrazine-2-carboxamide], the DC50 is less than 1 nM.

Take `COCCN(CC1CCN(c2cnc(C(=O)N[C@H]3CC[C@H](Oc4ccc(C#N)c(Cl)c4)CC3)cn2)CC1)[C@H]1C[C@H](Oc2ccc3c(c2)CN(C2CCC(=O)NC2=O)C3=O)C1` (some centres unmarked) [Compound 16, N-((1r,4r)-4-(3-chloro-4-cyanophenoxy)cyclohexyl)-5-(4-((((1r,3r)-3-((2-(2,6-dioxopiperidin-3-yl)-1-oxoisoindolin-5-yl)oxy)cyclobutyl)(2-methoxyethyl)amino)methyl)piperidin-1-yl)pyrazine-2-carboxamide]: the DC50 is less than 1 nM.

Take `CC(C)N(CC1CCN(c2ncc(C(=O)N[C@H]3CC[C@H](Oc4ccc(C#N)c(Cl)c4)CC3)cn2)CC1)[C@H]1C[C@H](Oc2ccc3c(c2)C(=O)N(C2CCC(=O)NC2=O)C3)C1` (some centres unmarked) [Compound 60, N-((1r,4r)-4-(3-chloro-4-cyanophenoxy)cyclohexyl)-2-(4-((((1r,3r)-3-((2-(2,6-dioxopiperidin-3-yl)-3-oxoisoindolin-5-yl)oxy)cyclobutyl) (isopropyl)amino)methyl)piperidin-1-yl)pyrimidine-5-carboxamide]: the DC50 is less than 1 nM.

In the case of `COCC(C)N(CC1CCN(c2cnc(C(=O)N[C@H]3CC[C@H](Oc4ccc(C#N)c(Cl)c4)CC3)cn2)CC1)[C@H]1C[C@H](Oc2ccc3c(c2)C(=O)N(C2CCC(=O)NC2=O)C3=O)C1` (some centres unmarked) [Compound 55, N-((1r,4r)-4-(3-chloro-4-cyanophenoxy)cyclohexyl)-5-(4-((((1r,3r)-3-((2-(2,6-dioxopiperidin-3-yl)-1,3-dioxoisoindolin-5-yl)oxy)cyclobutyl)(1-methoxypropan-2-yl)amino)methyl)piperidin-1-yl)pyrazine-2-carboxamide], the DC50 was less than 1 nM.

The same assay, now with this note: degradation of AR ELISA in LNCaP and/or VCaP cells; Table 2C; read-out: DC50 Code*.
As for `CC1(C)[C@H](NC(=O)c2ccc(N3CCC(CCN4CC5CN(c6ccc7c(c6)C(=O)N(C6CCC(=O)NC6=O)C7=O)CC5C4)C3)cc2)C(C)(C)[C@H]1Oc1ccc(C#N)c(Cl)c1` (some centres unmarked) [compound 111, N-((1r,3r)-3-(3-chloro-4-cyanophenoxy)-2,2,4,4-tetramethylcyclobutyl)-4-(3-(2-(5-(2-(2,6-dioxopiperidin-3-yl)-1,3-dioxoisoindolin-5-yl)hexahydropyrrolo[3,4-c]pyrrol-2(1H)-yl)ethyl)pyrrolidin-1-yl)benzamide], the DC50 was less than 1 nM.

For the molecule `CC1(C)[C@H](NC(=O)c2ccc(N3CCC(CN4CCN(c5ccc6c(c5)C(=O)N(C5CCC(=O)N(O)C5=O)C6=O)CC4)CC3)cc2)C(C)(C)[C@H]1Oc1ccc(C#N)c(Cl)c1` (some centres unmarked) [compound 142, N-((1r,3r)-3-(3-chloro-4-cyanophenoxy)-2,2,4,4-tetramethylcyclobutyl)-4-(4-((4-(2-(1-hydroxy-2,6-dioxopiperidin-3-yl)-1,3-dioxoisoindolin-5-yl)piperazin-1-yl)methyl)piperidin-1-yl)benzamide], the DC50 is more than 100 nM.

As for `Cc1cc(O[C@H]2C(C)(C)[C@H](NC(=O)c3cnc(N4CCC(CCN5CC(Oc6ccc7c(c6)C(=O)N(C6CCC(=O)NC6=O)C7=O)C5)CC4)nc3)C2(C)C)cc(C)c1C#N` (some centres unmarked) [compound 85, N-((1r,3r)-3-(4-cyano-3,5-dimethylphenoxy)-2,2,4,4-tetramethylcyclobutyl)-2-(4-(2-(3-((2-(2,6-dioxopiperidin-3-yl)-1,3-dioxoisoindolin-5-yl)oxy)azetidin-1-yl)ethyl)piperidin-1-yl)pyrimidine-5-carboxamide], the DC50 is less than 1 nM.

For the molecule `COc1cc(O[C@H]2C(C)(C)[C@H](NC(=O)c3ccc(N4CCC(CN(CCN5CCOCC5)[C@H]5C[C@H](Oc6ccc7c(c6)C(=O)N(C6CCC(=O)NC6=O)C7=O)C5)CC4)cc3)C2(C)C)ccc1C#N` (some centres unmarked) [compound 204, N-((1r,3r)-3-(4-cyano-3-methoxyphenoxy)-2,2,4,4-tetramethylcyclobutyl)-4-(4-((((1r,3r)-3-((2-(2,6-dioxopiperidin-3-yl)-1,3-dioxoisoindolin-5-yl)oxy)cyclobutyl)(2-morpholinoethyl)amino)methyl)piperidin-1-yl)benzamide], the DC50 is less than 1 nM.

Take `Cc1cc(O[C@H]2C(C)(C)[C@H](NC(=O)c3ccc(N4CCC(CN(C)[C@H]5CC[C@@H](Oc6ccc7c(c6)C(=O)N(C6CCC(=O)NC6=O)C7=O)C5)CC4)cc3)C2(C)C)cc(C)c1C#N` (stereo partly drawn) [compound 152, N-((1r,3S)-3-(4-cyano-3,5-dimethylphenoxy)-2,2,4,4-tetramethylcyclobutyl)-4-(4-((((1S,3R)-3-((2-(2,6-dioxopiperidin-3-yl)-1,3-dioxoisoindolin-5-yl)oxy)cyclopentyl) (methyl)amino)methyl)piperidin-1-yl)benzamide]: the DC50 is less than 1 nM.

Take `Cc1cc(O[C@H]2C(C)(C)[C@H](NC(=O)c3ccc(N4CCC(CN5CCOC[C@@H]5COc5ccc6c(c5)C(=O)N(C5CCC(=O)NC5=O)C6=O)CC4)cc3)C2(C)C)cc(C)c1C#N` (stereo partly drawn) [compound 213, N-((1r,3R)-3-(4-cyano-3,5-dimethylphenoxy)-2,2,4,4-tetramethylcyclobutyl)-4-(4-(((3R)-3-(((2-(2,6-dioxopiperidin-3-yl)-1,3-dioxoisoindolin-5-yl)oxy)methyl)morpholino)methyl)piperidin-1-yl)benzamide]: the DC50 is less than 1 nM.

As for `COCCN(CC1CCN(c2ccc(C(=O)N[C@H]3C(C)(C)[C@H](Oc4ccc(C#N)c(OC)c4)C3(C)C)nn2)CC1)[C@H]1C[C@H](Oc2cc(OC)c3c(c2)C(=O)N(C2CCC(=O)NC2=O)C3=O)C1` (some centres unmarked) [compound 100, N-((1r,3r)-3-(4-cyano-3-methoxyphenoxy)-2,2,4,4-tetramethylcyclobutyl)-6-(4-((((1r,3r)-3-((2-(2,6-dioxopiperidin-3-yl)-7-methoxy-1,3-dioxoisoindolin-5-yl)oxy)cyclobutyl)(2-methoxyethyl)amino)methyl)piperidin-1-yl)pyridazine-3-carboxamide], the DC50 is less than 1 nM.

`[2H]C([2H])([2H])Oc1cc(O[C@H]2C[C@H](N(CC3CCN(c4cnc(C(=O)N[C@H]5C(C)(C)[C@H](Oc6ccc(C#N)c(OC)c6)C5(C)C)cn4)CC3)C(C)C)C2)cc2c1C(=O)N(C1CCC(=O)NC1=O)C2=O` (mixture of isomers) [compound 203, rac-N-((1r,3r)-3-(4-cyano-3-methoxyphenoxy)-2,2,4,4-tetramethylcyclobutyl)-5-(4-((((1r,3r)-3-((2-(2,6-dioxopiperidin-3-yl)-7-(methoxy-d3)-1,3-dioxoisoindolin-5-yl)oxy)cyclobutyl) (isopropyl)amino)methyl)piperidin-1-yl)pyrazine-2-carboxamide]: the DC50 is less than 1 nM.

As for `COCCN(CC1CCN(c2nc(C)c(C(=O)N[C@H]3C(C)(C)[C@H](Oc4ccc(C#N)c(OC)c4)C3(C)C)c(C)n2)CC1)[C@H]1C[C@H](Oc2cc(OC)c3c(c2)C(=O)N(C2CCC(=O)NC2=O)C3=O)C1` (mixture of isomers) [compound 232, rac-N-((1r,3r)-3-(4-cyano-3-methoxyphenoxy)-2,2,4,4-tetramethylcyclobutyl)-2-(4-((((1r,3r)-3-((2-(2,6-dioxopiperidin-3-yl)-7-methoxy-1,3-dioxoisoindolin-5-yl)oxy)cyclobutyl)(2-methoxyethyl)amino)methyl)piperidin-1-yl)-4,6-dimethylpyrimidine-5-carboxamide], the DC50 was less than 1 nM.

`COc1cc(O[C@H]2C[C@H](N(CCN3CCOCC3)CC3CCN(c4cnc(C(=O)N[C@H]5C(C)(C)[C@H](Oc6cc(C)c(C#N)c(C)c6)C5(C)C)cn4)CC3)C2)cc2c1C(=O)N(C1CCC(=O)NC1=O)C2=O` (some centres unmarked) [compound 210, N-((1r,3r)-3-(4-cyano-3,5-dimethylphenoxy)-2,2,4,4-tetramethylcyclobutyl)-5-(4-((((1r,3r)-3-((2-(2,6-dioxopiperidin-3-yl)-7-methoxy-1,3-dioxoisoindolin-5-yl)oxy)cyclobutyl)(2-morpholinoethyl)amino)methyl)piperidin-1-yl)pyrazine-2-carboxamide]: the DC50 is less than 1 nM.

The DC50 is the midpoint of the concentration-degradation curve.
